Assay results published in patent US9415047B2, “Use of benzo five-membered nitrogen heterocyclic piperazine or piperidine derivatives” (Liaoning Emmy Biological Pharmaceutical Co., Ltd., priority 2012, dated 2016).
pEC50: −log10 of the molar value.

How the values were obtained:
[1] = test system: NA constricted rabbit aorta; test: Relaxing effects on vascular smooth muscle constricted by noradrenaline (NA) in vitro; conditions: relaxation of rabbit aorta constricted by noradrenaline (10^−5 mol/L), mean±SEM, n=5; for pEC50: Oryctolagus cuniculus
Procedure: Adrenaline hydrochloride (AD) (10^−5 mol/L) was added into a bath tube to induce constriction, when maximal constriction was achieved, the sample was completely flushed, K-H solution was changed for every 20 min. Contents in the tube was balanced for 60 min, when baseline recovered to be stable, noradrenaline bitartrate (NA) (10^−5 mol/L) was added to induce constriction. When the later maximal constriction response was basically consistent with the former one, the prepared compound solutions were subsequently added, including compound II-84 to II-123 solutions (1×10^−10-1×10^−2 mol/L), compound II-124 to II-157 solutions (1×10^−10-1×10^−3 mol/L), to record the waveforms. Relaxing percentage of the compound was used as Y axis, maximal relaxation response was 100%, negative logarithm of different concentration was used as X axis, to draw dose effect curve (expressed in mean±SEM ( ? ), n=5).

[2] = test system: AD constricted rabbit aorta; test: Relaxing effects on vascular smooth muscle constricted by adrenaline hydrochloride (AD) in vitro; conditions: relaxation of rabbit aorta constricted by adrenaline (10^−5 mol/L), mean±SEM, n=5; for pEC50: Oryctolagus cuniculus
Procedure: Adrenaline hydrochloride (AD) (10^−5 mol/L) was added into a bath tube to induce constriction, when maximal constriction was achieved, the sample was completely flushed, K-H solution was changed for every 20 min. Contents in the tube was balanced for 60 min, when baseline recovered to be stable, the […] was added at the same concentration to induce constriction. When the later maximal constriction response was basically consistent with the former one, the prepared compound solutions were subsequently added, including compound II-1 to II-60 solutions (1×10^−8-1×10^−3 mol/L), compound II-84 to II-123 solutions (1×10^−10-1×10^−2 mol/L) and compound II-124 to II-157 solutions (1×10^−10˜1×10^−3 mol/L), to record the waveforms. Relaxing percentage of the compound was used as Y axis, maximal relaxation response was 100%, negative logarithm of different concentration was used as X axis, to draw dose effect curve (expressed in mean±SEM ( ? ), n=5). Compounds II-2 and II-3 had the most obvious relaxing effects (FIG. 1 and FIG. 8).

[3] = test system: high kalium concentration constricted rabbit aorta; test: Relaxing effects on vascular smooth muscle constricted by high kalium concentration in vitro; conditions: Oryctolagus cuniculus, relaxation of rabbit aorta constricted by high kalium solution (K+ 60 mmol/L); mean±SEM, n=5
Procedure: Adrenaline hydrochloride (AD) (10^−5 mol/L) was added into a bath tube to induce constriction, when maximal constriction was achieved, the sample was completely flushed, K-H solution was changed for every 20 min. Contents in the tube was balanced for 60 min, when baseline recovered to be stable, K-H solution in the bath tube was replaced with high kalium concentration solution to induce constriction. When the later maximal constriction response was basically consistent with the former one, the prepared compound solutions were subsequently added, including compound II-1 to II-60 solutions (1×10^−8-1×10^−3 mol/L), compound II-84 to II-123 solutions (1×10^−10-1×10^−2 mol/L) and compound II-124 to II-157 solutions (1×10^−10-1×10^−3 mol/L), to record the waveforms. Relaxing percentage of the compound was used as Y axis, maximal relaxation response was 100%, negative logarithm of different concentration was used as X axis, to draw dose effect curve (expressed in mean±SEM ( ? ), n=5). Compounds II-2 and II-3 had the most obvious relaxing effects (FIG. 2 and FIG. 9).

## N#Cc1ccc2nnn(CCCCN3CCC(c4noc5cc(F)ccc45)CC3)c2c1 [II-96, N-(4-(6-cyanobenzotriazolyl)butyl)-4-(3-(6-fluorobenzisoxazolyl))piperidine]
[1]
  pEC50: 5.31

## COc1ccc2nnn(CCCCN3CCC(c4cccc(C(F)(F)F)c4)CC3)c2c1 [II-131, N-(4-(6-methoxyl-1H-benzotriazole-1-yl)butyl)-4-(3-trifluoromethylphenyl)piperidine]
[1]
  −logEC50: 4.77 ± 0.03
[2]
  pEC50: 4.86

## c1ccc2nc(C3CCN(CCCCn4nnc5ccccc54)CC3)cnc2c1 [II-157, N-(4-(1H-benzotriazole-1-yl)butyl)-4-(2-quinoxalinyl)piperidine]
[1]
  −logEC50: 4.53 ± 0.05
[2]
  −logEC50: 4.83 ± 0.05

## FC(F)(F)c1cccc(C2CCN(CCCOn3cnc4ccccc43)CC2)c1 [II-134, N-(4-(1H-benzimidazole-1-yl)propoxyl)-4-(3-trifluoromethylphenyl)piperidine]
[1]
  −logEC50: 5.15 ± 0.06
[2]
  pEC50: 5.31

## c1cnc(C2CCN(CCCCn3cnc4ccccc43)CC2)nc1 [II-154, N-(4-(1H-benzimidazoyl-1-yl)butyl)-4-(2-pyrimidinyl)piperidine]
[1]
  −logEC50: 4.52 ± 0.04
[2]
  −logEC50: 4.72 ± 0.03

## Fc1ccc2nnn(CCCCN3CCC(c4cccc(C(F)(F)F)c4)CC3)c2c1 [II-130, N-(4-(6-fluoro-1H-benzotriazole-1-yl)butyl)-4-(3-trifluoromethylphenyl)piperidine]
[1]
  −logEC50: 5.21 ± 0.04
[2]
  pEC50: 5.31

## FC(F)(F)c1cccc(C2CCN(CCCCn3cnc4ccccc43)CC2)c1 [II-126, N-(4-(1H-benzimidazoyl-1-yl)butyl)-4-(3-trifluoromethylphenyl)piperidine]
[1]
  −logEC50: 6.32 ± 0.04
[2]
  pEC50: 6.21

## COc1ccc2c(C3CCN(CCCCn4nnc5ccc(C#N)cc54)CC3)noc2c1 [II-146, N-(4-(6-cyanobenzotriazolyl)butyl)-4-(3-(6-methoxylbenzisoxazolyl))piperidine]
[1]
  −logEC50: 5.09 ± 0.04
[2]
  pEC50: 5.23

## c1ccc2c(c1)ncn2CCCCN1CCC(c2ccncc2)CC1 [II-153, N-(4-(1H-benzimidazoyl-1-yl)butyl)-4-(4-pyridyl)piperidine]
[1]
  −logEC50: 4.66 ± 0.02
[2]
  pEC50: 4.86

## FC(F)(F)c1cccc(C2CCN(CCCOn3nnc4ccccc43)CC2)c1 [II-133, N-(4-(1H-benzotriazole-1-yl)propoxyl)-4-(3-trifluoromethylphenyl)piperidine]
[1]
  −logEC50: 5.36 ± 0.05
[2]
  pEC50: 5.56

## COc1ccccc1C1CCN(CCCCn2cnc3ccccc32)CC1 [II-129, N-(4-(1H-benzimidazoyl-1-yl)butyl)-4-(2-methoxylphenyl)piperidine]
[1]
  −logEC50: 4.55 ± 0.03
[2]
  pEC50: 4.76

## COc1ccc2nnn(CCCN3CCC(c4nsc5cc(F)ccc45)CC3)c2c1 [II-100]
[1]
  pEC50: 4.19

## FC(F)(F)c1cccc(C2CCN(CCCCn3nnc4ccccc43)CC2)c1 [II-127, N-(4-(1H-benzotriazole-1-yl)butyl)-4-(3-trifluoromethylphenyl)piperidine]
[1]
  −logEC50: 6.45 ± 0.03
[2]
  pEC50: 6.36

## Clc1cccc(C2CCN(CCCCn3cnc4ccccc43)CC2)c1 [II-124, N-(4-(1H-benzimidazoyl-1-yl)butyl)-4-(3-chlorophenyl)piperidine]
[1]
  −logEC50: 5.11 ± 0.02
[2]
  pEC50: 5.03

## N#Cc1ccc2nnn(CCCCN3CCC(c4cccc(C(F)(F)F)c4)CC3)c2c1 [II-132, N-(4-(6-cyano-1H-benzotriazole-1-yl)butyl)-4-(3-trifluoromethylphenyl)piperidine]
[1]
  −logEC50: 4.53 ± 0.02
[2]
  pEC50: 4.79

## Fc1cccc(C2CCN(CCCCn3cnc4ccccc43)CC2)c1 [II-128, N-(4-(1H-benzimidazoyl-1-yl)butyl)-4-(3-fluorophenyl)piperidine]
[1]
  −logEC50: 4.67 ± 0.02
[2]
  pEC50: 4.89

## Clc1cccc(C2CCN(CCCCn3nnc4ccccc43)CC2)c1 [II-125, N-(4-(1H-benzotriazole-1-yl)butyl)-4-(3-chlorophenyl)piperidine]
[1]
  −logEC50: 5.27 ± 0.03
[2]
  pEC50: 5.16

## O=Cc1ccc2nnn(CCCN3CCC(c4noc5cc(F)ccc45)CC3)c2c1 [II-141, N-(3-(6-formoxyl-1H-benzotriazole-1-yl)propyl)-4-(3-(6-fluorobenzisoxazolyl))piperidine]
[1]
  −logEC50: 5.73 ± 0.04
[2]
  pEC50: 5.56

## Fc1ccc2c(C3CCN(CCn4nnc5ccccc54)CC3)noc2c1 [II-94, N-(2-(1-benzotriazolyl)ethyl)-4-(3-(6-fluorobenzisoxazolyl))piperidine]
[1]
  pEC50: 5.81

## c1ccc2c(C3CCN(CCCCn4nnc5ccccc54)CC3)cccc2c1 [II-156, N-(4-(1H-benzotriazole-1-yl)butyl)-4-(1-naphthyl)piperidine]
[1]
  −logEC50: 4.34 ± 0.04
[2]
  −logEC50: 4.22 ± 0.06

## c1ccc2c(c1)nnn2CCCCN1CCC(C2CCCCC2)CC1 [II-155, N-(4-(1H-benzotriazole-1-yl)butyl)-4-cyclohexyl piperidine]
[1]
  −logEC50: 4.44 ± 0.05
[2]
  −logEC50: 4.39 ± 0.05

## COc1ccc2nnn(CCCN3CCC(c4n[nH]c5cc(F)ccc45)CC3)c2c1 [II-101]
[1]
  pEC50: 4.43

## COc1ccc2nnn(CCCN3CCC(c4noc5ccccc45)CC3)c2c1 [II-142, N-(3-(6-methoxylbenzotriazolyl)propyl)-4-(3-benzisoxazolyl)piperidine]
[1]
  −logEC50: 6.07 ± 0.04
[2]
  pEC50: 6.11

## Fc1ccc2c(C3CCN(CCCCn4nnc5ccccc54)CC3)noc2c1 [II-95, N-(4-(1-benzotriazolyl)butyl)-4-(3-(6-fluorobenzisoxazolyl))piperidine]
[1]
  pEC50: 5.73

## COc1ccc2c(C3CCN(CCCn4nnc5ccccc54)CC3)noc2c1 [II-136, N-(3-(1H-benzotriazole-1-yl)propyl)-4-(3-(6-methoxylbenzisoxazolyl))piperidine]
[1]
  pEC50: 5.04
[2]
  pEC50: 5.34

## Fc1ccc2c(C3CCN(CCCn4nnc5ccc(F)cc54)CC3)noc2c1 [II-137, N-(3-(6-fluoro-1H-benzotriazole-1-yl)propyl)-4-(3-(6-fluorobenzisoxazolyl))piperidine]
[1]
  pEC50: 5.73
[2]
  pEC50: 5.61

## Fc1ccc2c(C3CCN(CCCn4nnc5ccc(Cl)cc54)CC3)noc2c1 [II-138, N-(3-(6-chloro-1H-benzotriazole-1-yl)propyl)-4-(3-(6-fluorobenzisoxazolyl))piperidine]
[1]
  pEC50: 5.22
[2]
  pEC50: 5.42

## Cc1ccc2nnn(CCCN3CCC(c4noc5cc(F)ccc45)CC3)c2c1 [II-139, N-(3-(6-methyl-1H-benzotriazole-1-yl)propyl)-4-(3-(6-fluorobenzisoxazolyl))piperidine]
[1]
  −logEC50: 5.35 ± 0.03
[2]
  pEC50: 5.38

## Cc1ccc2c(C3CCN(CCCn4nnc5ccccc54)CC3)noc2c1 [II-135, N-(3-(1H-benzotriazole-1-yl)propyl)-4-(3-(6-methylbenzisoxazolyl))piperidine]
[1]
  pEC50: 5.26
[2]
  pEC50: 5.45

## Fc1ccc2c(N3CCN(CCCCn4cnc5ccccc54)CC3)nsc2c1 [II-19, 1-(4-(4-(3-(6-fluorobenzisothiazolyl))piperazine-1-yl)butyl)-1H-benzimidazole]
[3]
  pEC50: 4.06
[2]
  pEC50: 4.18

## c1ccc2c(N3CCN(CCCCn4nnc5ccccc54)CC3)cccc2c1 [II-47, 1-(4-(4-(1-naphthyl)piperazine-1-yl)butyl)-1H-benzotriazole]
[3]
  pEC50: 3.54
[2]
  pEC50: 3.88

## Fc1ccc2c(C3CCN(CCn4nnc5ccccc54)CC3)noc2c1 [II-143, N-(2-(1-benzotriazolyl)ethyl)-4-(3-(6-fluorobenzisoxazolyl))piperidine]
[3]
  pEC50: 3.92
[2]
  pEC50: 5.92

## N#Cc1ccc2cnn(CCCN3CCN(c4cccc(Cl)c4Cl)CC3)c2c1 [II-60]
[3]
  pEC50: 3.81
[2]
  pEC50: 4.05

## c1coc(C2CCN(CCCCn3cnc4ccccc43)CC2)c1 [II-152, N-(4-(1H-benzimidazoyl-1-yl)butyl)-4-(2-furyl)piperidine]
[1]
  −logEC50: 4.23 ± 0.03
[2]
  pEC50: 4.43
